Measurements taken from patent US10716759B2, “Rehydration of micronized tecovirimat monohydrate” (SIGA TECHNOLOGIES, INC., priority 2013, dated 2020).

Columns and labels:
[1] = Moisture content by Karl Fischer method; format: physicochemical; details: Tray rehydration (18 hours bench top, 2 hours 25° C./60% RH or 2 hours 40° C./75% RH)
[2] = system: authentic variola virus; details: cited from earlier work
[3] = in vivo; cited from earlier work
[4] = intravenous administration; cited from earlier work

## O=C(NN1C(=O)[C@@H]2[C@@H]3C=C[C@@H]([C@H]4C[C@@H]34)[C@@H]2C1=O)c1ccc(C(F)(F)F)cc1 [ST-246, N-[(3aR,4R,4aR,5aS,6S,6aS)-3,3a,4,4a,5,5a,6,6a-octahydro-1,3-dioxo-4,6-ethenocycloprop[f]isoindol-2(1H)-yl]-4-(trifluoromethyl)-benzamide]
[1]
  Moisture (% w/w KF): ~4.5 % w/w

## Nc1ccn(C[C@@H](CO)OCP(=O)(O)O)c(=O)n1 [Cidofovir, (S)-1-(3-hydroxy-2-phosphonylmethoxypropyl)cytosine]
[2]
  Variola virus replication: inhibit authentic variola virus replication
[3]
  Bioavailability: poorly bioavailable
[4]
  Nephrotoxicity: dose-limiting nephrotoxicity
